Data as given in patent US11478526B2, “Methods of reducing neuroinflammation or toxicity induced by amyloid beta (abeta) using glucocorticoid induced leucine zipper (GILZ) analog peptides” (INDIANA UNIVERSITY RESEARCH AND TECHNOLOGY CORPORATION, priority 2016, dated 2022).

Tests used:
[1] = molecular target: T1, Recombinant human p65 protein (r-p65) (Homo sapiens, UniProt Q04206); assay: Plate binding ELISA of GA/PGA with r-p65 (KD by method of Friguet)
T1 construct: purchased Ori-Gene Technologies Inc., Rockville, Md; TP320780
T1 sequence (Q04206 whole entry): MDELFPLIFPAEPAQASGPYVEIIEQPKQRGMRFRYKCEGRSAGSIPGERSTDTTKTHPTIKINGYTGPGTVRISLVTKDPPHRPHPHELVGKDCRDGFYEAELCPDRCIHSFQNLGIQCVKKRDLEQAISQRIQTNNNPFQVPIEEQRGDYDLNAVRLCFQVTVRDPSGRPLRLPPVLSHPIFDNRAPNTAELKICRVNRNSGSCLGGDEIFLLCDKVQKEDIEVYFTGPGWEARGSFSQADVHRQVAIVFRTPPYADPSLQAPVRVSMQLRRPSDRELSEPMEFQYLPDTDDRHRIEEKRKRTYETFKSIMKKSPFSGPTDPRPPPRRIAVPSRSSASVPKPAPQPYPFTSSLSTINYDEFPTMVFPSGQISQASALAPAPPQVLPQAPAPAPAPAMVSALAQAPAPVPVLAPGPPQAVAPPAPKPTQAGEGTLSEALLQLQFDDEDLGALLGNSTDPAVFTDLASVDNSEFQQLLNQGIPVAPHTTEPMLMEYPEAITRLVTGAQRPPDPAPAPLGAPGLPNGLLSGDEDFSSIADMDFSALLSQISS
Method: We used similar method to determine direct binding kinetics of GA hexapeptides with human r-p65. […] Absorbance at 650 nm was measured with a mixing time of 30 s using BIORAD microplate reader. […] The dissociation constant of the interaction between the GA or the control peptide and r-p65 was determined by the method of Friguet et al., as described. A fraction of the bound r-p65 (x) and the ratio of bound r-p65 to the free GA or control peptide (y) was determined by the equations: x=(A0−A)/(A0), where A0 is the absorbance of r-p65anti-p65 complex in the absence of bound GA or control peptide and y=(A0−A)/(a0−i0)×(A0−A)/(A0), where a0 is the total concentration of GA or control peptide and i0 is the total concentration of r-p65.
Kinetics of PGA:-p65 interaction: The binding kinetics of top five PGA with full length human r-p65 was assessed as described. Plate bound GILZ-P or PGA at increasing concentrations was probed with r-p65-DDK (Ori-Gene Technologies Inc., Rockville, Md.) at constant concentration and detected with anti-DDK.

[2] = LD50 predicted from in-vitro IC50 by regression (Speilmann method); settings: for LD50 (mM): score 1/0; for LD50 estimated from IC50: Log (LD50)=0.506×(log IC50)+0.475, body weight
Method: Lactate dehydrogenase (LDH) assay: To detect direct GA-induced cell lysis we performed LDH release assays (Roche Molecular Diagnostics). […] Approximately 5×10^4 U373 cells/well were cultured in 96-well plates in the presence of increasing concentrations of individual GA or control peptide from 0.5 μM to 500 μM. Cells treated with 2% triton-X 100 (Sigma Aldrich, St. Louis, Mo.) for 10 minutes served as positive control. Untreated cells served as controls for spontaneous LDH-release. Specific LDH-release was calculated according to the following formula: LDH-release %=100*(GA or control peptide treated cells—untreated cells)/(positive control-untreated cells). The IC50 values were extrapolated by logarithmic estimation. The LD50 in mg/kg was predicted using the formula, Log (LD50)=0.506×(log IC50)+0.475. […]

[3] = system: primary human fetal brain cells (HFB); assay: CTG viability of primary human fetal brain cultures with or without Aβ1-42; type: cell-based; settings: for viability of Aβ1-42 exposed HFB cells: Aβ1-42 10 μM
Method: Functional assays in human primary mixed brain cultures (HFB). Primary cultures of mixed HFB were prepared from the brain parenchyma of aborted fetuses (80-100 days gestational age). The tissues were obtained from the Birth Defects Research Laboratory (BDRL) at the University of Washington, Seattle with approval from the Indiana University Institutional Review Board (IRB). The IRB determined that the use of anonymous human biological materials received from this depository is not considered as human subjects research (supplementary document, s1). The NIH funded BDRL tissue distribution program operates separately in full compliance with all relevant state and federal laws and regulations with donors providing written informed consent.
Fetal brain materials (10-20 g) were shipped overnight in chilled Hibernate-E medium (Invitrogen) supplemented with B27 (Invitrogen), GlutaMAX (Invitrogen) and antibiotic-antimycotic solution (Cellgro). HFB were prepared and cultured as described. Briefly, cells were cultured in Neurobasal medium (Invitrogen) without phenol red supplemented with 1×B27, […] GlutaMAX, 1×antibiotic cocktail, 5 ng/mL recombinant fibroblast growth factor 2 (bFGF) (Invitrogen), and 2 μL/mL Normocin (InVivoGen, San Diego, Calif., USA). Cells were counted and seeded onto poly-D-lysine (Sigma-Aldrich) coated 24-well plates (Corning, Lowell, Mass., USA) at 1.5×10^5 cells per well and maintained at 37° C. in a 5% CO2 incubator. Half media changes were performed every 4th day of culture and morphology was monitored via phase contrast microscopy. Culture medium was removed from cells on day 17 (DIV17) and replaced with Neurobasal medium with B27. […] Cells and conditioned media were harvested and stored for further analysis. Relative ATP concentration was measured using the CTG kit (Promega). Data is presented as ΔRLU=RLU of Aβ1-42 exposed cells-RLU unexposed cells. Conditioned media collected were assessed for specific cytokines using the OptEIA kits (BD Biosciences). Nuclear and cytoplasmic fractions were extracted using the CelLytic™ NuCLEAR™ Extraction Kit (Sigma) following manufacturer's protocol. Five microgram of nuclear extracts was incubated in a 96-well plate coated with oligonucleotides containing the NF-κβ consensus nucleotide sequence (5′-[…]-3′) (SEQ ID NO: 30). The activated NF-κβ bound to DNA was detected by anti-p65 antibody followed by a peroxidase coupled secondary antibody and substrate using the TransAM kit protocol (Active Motif). Nuclear extracts of Raji cells was used as the positive control.
Select PGA protects against Aβ1-42 induced toxicity, prevents p65 activation and cytokine response in human fetal brain (HFB) cells. […] Viability in terms of relative luminescent Units (RLU) was quantified using a Glowmax luminometer (Promega, Wis.). Data are presented as ARLU=RLU of Aβ1-42 exposed cells-RLU of unexposed cells. […] The mean RLU of vehicle treated HFB varied between 7352.75+/−1265.2 and 16157.5+/−4950. Average RLU of cultures exposed to Aβ1-42 varied between 6067.25+/−903.05 and 11574.25+/−4139.3 in different experiments. […] The culture supernatants were assessed for cytokines by ELISA (R&D Systems, Minn.). […] Primary HFB cultured similarly and harvested at the end of 4 hours was assessed for nuclear p65 using TransAM kit for NF-κB p65 (Active Motif, Calif.).

U373 cells [4] = type: cell-based, human; settings: Example 9, PGA synthesized with TAT; read-out: IC50 of LDH release extrapolated from regression analysis
Method: Lactate dehydrogenase (LDH) assay: To detect direct GA-induced cell lysis we performed LDH release assays (Roche Molecular Diagnostics). […] Approximately 5×10^4 U373 cells/well were cultured in 96-well plates in the presence of increasing concentrations of individual GA or control peptide from 0.5 μM to 500 μM. Cells treated with 2% triton-X 100 (Sigma Aldrich, St. Louis, Mo.) for 10 minutes served as positive control. Untreated cells served as controls for spontaneous LDH-release. Specific LDH-release was calculated according to the following formula: LDH-release %=100*(GA or control peptide treated cells—untreated cells)/(positive control-untreated cells). The IC50 values were extrapolated by logarithmic estimation. The LD50 in mg/kg was predicted using the formula, Log (LD50)=0.506×(log IC50)+0.475.
Effects of PGA on membrane integrity and apoptosis: The top five PGA were covalently synthesized with the cell penetrating TAT (transcriptional transactivation) peptide to facilitate intracellular delivery (Genescript, N.J.). Membrane integrity of U373 microglial cells exposed to increasing concentration of each PGA from 0.5 μm to 500 μM was assessed by the leakage of intracellular lactate dehydrogenase (LDH) into culture medium (Roche, Ind.).

U373 cells [5] = assay: Annexin-V and propidium iodide apoptosis by flow cytometry; type: cell-based, human; settings: score 1/0
Method: Detection apoptosis by flow cytometry: To further assess cell cytotoxicity, the apoptotic effects of individual GA or control peptide was evaluated by the Annexin-V and propidium iodide (PI) dual staining method (Annexin-V-Fluos staining kit, Roche Diagnostics, Mannheim, Germany). As opposed to apoptotic cells, necrotic cells with ruptured cell membrane take up PI, the DNA binding dye. Thus, cells which take up both fluorochromes are a mixture of apoptotic and necrotic cells, whereas cells that exclude PI but bind Annexin V are (early) apoptotic cells. U373 cells cultured with varying concentrations of individual GA or control peptide (0.5 μM to 50 μM) for 24 hours were centrifuged and suspended in 100 μl of Annexin V/PI labelling solution (20 μl each of Annexin-V-Fluos labelling reagent and PI in 1 ml of binding buffer) for 15 min at room temperature. After washing the cells were resuspended in PBS:1% paraformaldehyde and analyzed using a FACScan flow cytometer (BD Biosciences, San Jose, Calif.).

[6] = system: LPS induced neuroinflammation; assay: LPS induced neuroinflammation: real time PCR of brain tissue; type: in vivo, mouse; settings: 25 mg/kg i.v. alternate days, day 7
Method: Animals and lipopolysaccharide induced neuroinflammation: Male C57/6J mice weighing 32 to 37 grams were housed five per cage at a temperature of 22±2° C. with 12 hour light/12 hour dark cycles with free access to laboratory food and water. Lipopolysaccharides (LPS) from Escherichia coli 026:B6, =10,000 EU/mg, purified by phenol extraction was purchased from Sigma (Sigma Aldrich, Mo., USA). The mice were randomly divided into seven groups: LPS, LPS+GA-1 or GA-2 or CP-1 or CP-2 or CP-3 or TAT. The LPS was administered intraperitoneally at […] in 100 μl of sterile saline followed by corn oil in the morning daily for six days. The GA or CP was administered intravenously at 25 mg/kg in 100 μl of sterile saline on alternate days. Additional control group included mice receiving saline alone. All animals were sacrificed on day 7.
Real time polymerase chain reaction. Total cellular RNA was isolated from each brain tissue using Qiagen kit (Invitrogen, Carlsbad, Calif.) following manufacturer's protocol and reverse transcribed using iScript cDNA synthesis kit (Biorad, Calif.). Equal amount of cDNA measured by the Nanodrop (ThermoFisher Scientific, Waltham, USA) was used for amplification of IL-1β, IL-12, CD14, BclXL and Bcl2. Real time PCR was performed using SYBR green/ROX qPCR master mix (SA Biosciences, Frederick, Md.) on the ABI Prism 7000 sequence detection system (Applied Biosystem, Foster City, Calif., USA). Each reaction contains 2×12.5 μl of master mix, 1 μl of 10 μM of primers and 50 ng of the cDNA, to a total volume of 25 μl. The thermal cycling conditions included an initial denaturation step at 50° C. for 2 min, 95° C. for 3 min, 39 cycles at 95° C. for 30 s, annealing temperature at 62° C. for 30 s and extension at 72° C. for 30 s.
The gene specific threshold cycle (Ct) for each sample (ΔCt) was corrected by subtracting the Ct for the housekeeping gene β-actin. Untreated controls were chosen as the reference samples. The ΔCt for all experimental samples was subtracted by the ΔCt for the control samples (ΔΔCt).The difference in each gene specific threshold between the sample from vehicle treated and GA or CP treated cells was determined to obtain the relative change in the specific mRNA. The magnitude of change in the mRNA was expressed as 2^−ΔΔCt. Each measurement of a sample was performed in duplicates.

[7] = system: differentiated SK-N-SH neuroblastoma cells; assay: Cellular morphology and CTG viability in differentiated neuroblasts; settings: 50 μM or 500 μM, 24 hours; for cell morphology: phase contrast
Method: Cell Titer-Glo (CTG) luminescent cell viability assay: Human neuroblastoma (SK-N-SH) cells cultured in minimal essential medium (MEM) supplemented with 1% fetal bovine serum (FBS) and 1% penicillin (100 U/ml)/streptomycin (100 μg/ml) were differentiated with 10 μM all-trans retinoic acid for 7 days. After resting for 24 hours in the low serum medium, the cells were seeded in 24 well (10^5 cells/well) culture plates in fresh medium and incubated with 50 μM or 500 μM of individual GA or control peptide for additional 24 hours. The cultures were then photographed using a phase contrast Leica microscope (Leica Microsystems Inc, Buffalogrove, Ill.). Subsequently, the cells were harvested, lysed with lysis buffer (M-PER, Pierce) and the lysate was assessed for metabolic activity using the luciferase based CTG assay (CTG, Promega, Madison, Wis.). Briefly, cell lysate (5 μL) in 25 μL of phosphate buffered saline was transferred to an opaque white 96-well plate, and then 30 μL of CTG assay solution was added. The relative luminescent signal (RLT) was quantified using a Glowmax luminometer (Promega).

Aβ1-42 exposed HFB cells = assay: Cytokines in culture medium of Aβ1-42 exposed HFB; type: cell-based, human; settings: PGA at IC50 concentration
[8] = dissociation constant, KD, method of Friguet et al.

For Ac-EPAPYQPEG-NH2 [PGA-3], the Kd ([1]; KD (uM), score 1/0) was > 3 µM, the Kd [1, 8] was 3.27 µM and the “LD50 (mM)” value [2] was 1 (>100). The “tolerance of HFB cultures (ΔRLU, CTG)” value ([3]; PGA at IC50 concentration) was “well tolerated”, the “viability of Aβ1-42 exposed HFB cells” value ([3]; PGA at IC50 concentration, 24 hours) was “significantly higher” and the IC50 (U373 cells [4]) was 0.98 µM. The “% apoptosis at LD50” value (U373 cells [5]) was 1 (<25).
With Ac-EPAPEQPDG-NH2 [CP-2] the “LD50 estimated from IC50” value [2] was 237.52 mg/kg, the “relative expression of BCl2 in brain tissues” value (from here on “relative expression of BCl2”) [6] was 0.45+/−0.9 and the “relative expression of CD14 mRNA in brain tissues” value (from here on “relative expression of CD14 mRNA”) [6] was 2.4+/−2. The “tolerance of HFB cultures (Δ-RLU, CTG)” value ([3]; 50 μM peptide) was “significant toxicity”, the “cellular metabolic activity / viability (CTG assay)” value [7] was “did not adversely affect the differentiated neuroblastoma cells” and the cell morphology [7] was “no apparent adverse effects on morphology”.
For Ac-APKPYQPRG-NH2 [PGA-1], the Kd ([1]; KD (uM), score 1/0) was > 3 µM, the Kd [1, 8] was 4.28 µM and the “LD50 (mM)” value [2] was 0 (<100). The “tolerance of HFB cultures (ΔRLU, CTG)” value ([3]; PGA at IC50 concentration) was “significant toxicity”, the IC50 (U373 cells [4]) was 2.27 µM and the “% apoptosis at LD50” value (U373 cells [5]) was 0 (>25).
In the case of Ac-EPAPYQPEG-NH2 [CP-1], the “LD50 estimated from IC50” value [2] is reported as 272.78 mg/kg, the “relative expression of BCl2” value [6] is reported as 0.36+/−0.8 and the “relative expression of BclXL in brain tissues” value [6] is reported as 0.06+/−0.08. The “relative expression of CD14 mRNA” value [6] was 1+/−0.3, the “viability of Aβ1-42 exposed HFB cells” value ([3]; 50 μM peptide, vs untreated Aβ1-42 exposed cultures) was “not significant” and the “cellular metabolic activity / viability (CTG assay)” value [7] was “did not adversely affect the differentiated neuroblastoma cells”. The cell morphology [7] was “no apparent adverse effects on morphology”.
For Ac-APKPYQPRG-NH2 [CP-3], the “LD50 estimated from IC50” value [2] was 237.62 mg/kg, the “relative expression of BCl2” value [6] was 0.44+/−0.9 and the “relative expression of BclXL in brain tissues” value [6] was 0.13+/−0.1. For the same substance, the “relative expression of CD14 mRNA” value [6] was 1.2+/−0.1, the “tolerance of HFB cultures (Δ-RLU, CTG)” value ([3]; 50 μM peptide) was “significant toxicity” and the “cellular metabolic activity / viability (CTG assay)” value [7] was “reduced the viability of the cells at both concentrations tested”. For the same substance, the cell morphology [7] was “morphological changes consistent with cell death”.
With Ac-EPAPEQPDG-NH2 [PGA-5] the “AIL-1p concentration in culture supernatant (not shown)” value (Aβ1-42 exposed HFB cells) was “significantly lower”, the “AIL-6 concentration in culture supernatant” value (Aβ1-42 exposed HFB cells) was “significantly lower” and the Kd ([1]; KD (uM), score 1/0) was > 3 µM. For the same substance, the Kd [1, 8] was 3.4 µM, the “LD50 (mM)” value [2] was 1 (>100) and the “tolerance of HFB cultures (ΔRLU, CTG)” value ([3]; PGA at IC50 concentration) was “significant toxicity”. For the same substance, the IC50 (U373 cells [4]) was 2 µM and the “% apoptosis at LD50” value (U373 cells [5]) was 0 (>25).
